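1) Cells in 96-well plates. 2) Compound, 48 h, 5 concentrations. 3) Linear interpolation between surrounding doses. 4) Unreached endpoint = highest concentration. GI50 = concentration required for 50% inhibition of growth. TGI denotes the concentration required for complete inhibition of growth.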
Assays:
Assay in all cases: NCI anticancer screen, dose series, 48 h
LOX IMVI melanoma = test system: LOX IMVI melanoma
HCC-2998 colon = test system: HCC-2998 colon
SN12C renal = test system: SN12C renal
MDA-MB-231 breast = test system: MDA-MB-231 breast
UO-31 renal = test system: UO-31 renal
NCI-H23 lung = test system: NCI-H23 lung
T-47D breast = test system: T-47D breast
M14 melanoma = test system: M14 melanoma
UACC-257 melanoma = test system: UACC-257 melanoma
NCI-H226 lung = test system: NCI-H226 lung

Row | Compound | TGI (LOX IMVI melanoma) | TGI (HCC-2998 colon) | TGI (SN12C renal) | TGI (MDA-MB-231 breast) | TGI (UO-31 renal) | TGI (NCI-H23 lung) | TGI (T-47D breast) | TGI (M14 melanoma) | TGI (UACC-257 melanoma) | TGI (NCI-H226 lung) | GI50 (LOX IMVI melanoma) | GI50 (HCC-2998 colon) | GI50 (MDA-MB-231 breast) | GI50 (UO-31 renal) | GI50 (NCI-H23 lung) | GI50 (T-47D breast) | GI50 (NCI-H226 lung)
1 | COc1ccc(Nc2nc(NNC(=O)Cc3ccccc3)nc(NNC(=O)c3ccncc3)n2)cc1 | > 10 µM | > 10 µM | > 10 µM | > 10 µM | > 10 µM | > 10 µM | > 10 µM | > 10 µM | > 10 µM |  |  |  |  |  |  |  | 
2 | CC(=O)OCC1(CNc2nc(N)ncc2C#N)CC(CCc2ccccc2)C1 (stereo unspecified) | > 100 µM |  | > 100 µM | > 100 µM | > 100 µM | > 100 µM | > 100 µM |  | > 100 µM | > 100 µM |  |  |  |  |  |  | 
3 | CCOC(=O)COC1=Nc2cc(OC)c(OC)c3nc(Cl)cc(c23)C1=O | 4.23 µM | 10.5 µM | 3.3 µM | 3.28 µM | 4.13 µM | 5.3 µM | 24 µM | 3.08 µM | 3.21 µM | 28.6 µM |  |  |  |  |  |  | 
4 | COc1ccc(-c2cc(-c3ccc(OC)c(OC)c3)nc(SCCCC(=O)NO)n2)cc1 | 1.06 µM | 5.63 µM |  | 8.78 µM | 1.44 µM | 6.16 µM | > 100 µM |  |  |  | 0.243 µM | 2.14 µM | 1.94 µM | 0.301 µM | 1.96 µM | 1.42 µM | 
5 | COC(CC1(CCNc2ccccc2)C(=O)N(COCC[Si](C)(C)C)c2ccccc21)OC (stereo unspecified) | 29.7 µM | 4.12 µM | 53.6 µM | 48.4 µM | 29.6 µM | 32.9 µM | 56.3 µM | 6.92 µM | 29.5 µM | 21.4 µM |  |  |  |  |  |  | 
6 | COc1cccc(OC/C(N=Cc2ccncc2)=N/NC(=O)c2ccncc2)c1 | > 100 µM | > 100 µM | > 100 µM | > 100 µM |  | > 100 µM | > 100 µM | > 100 µM | > 100 µM | > 100 µM |  |  |  |  |  |  | 
7 | COc1ccc(C(=O)/C=C/c2ccc(OCCCOc3ccc(/C=C/C(=O)c4ccc(OC)c(OC)c4)cc3)cc2)cc1OC |  | > 100 µM | > 100 µM | > 100 µM | > 100 µM |  | > 100 µM | > 100 µM | > 100 µM | > 100 µM |  |  |  |  |  |  | 
8 | CN1CCCC(OC(=O)c2cc3cc(CCl)ccc3oc2=O)C1 (stereo unspecified) | 34.3 µM | 33.1 µM | 43.6 µM | 52.1 µM | 32.5 µM | 45.1 µM | > 100 µM | 39.3 µM | 40.2 µM | 58.1 µM |  |  |  |  |  |  | 
9 | COCCN(C(=O)c1ccccc1)C1CCC(=O)c2[nH]c3ccccc3c21 (stereo unspecified) | > 39.4 µM | 31.8 µM | 21.1 µM | 15.9 µM | 25.2 µM | 36.9 µM | 34.4 µM | 20.4 µM | > 66.7 µM | 20.6 µM |  |  |  |  |  |  | 
10 | COC(C[C@H]1CCCC[C@]1(O)/C(=C\CO[Si](C(C)C)(C(C)C)C(C)C)Sc1ccccc1)OC | 37.5 µM | 34.2 µM | > 100 µM | 49.8 µM | > 100 µM | > 100 µM | 40.8 µM | > 100 µM | > 100 µM | 62.4 µM |  |  |  |  |  |  | 
11 | c1cc2c3c(c1)[C@@H]1O[C@@H]1c1cccc(c1-3)[C@@H]1O[C@H]21 | 10.7 µM |  | 54.2 µM | 41.8 µM | 30.3 µM | 33.1 µM | 62.8 µM | 34.1 µM | 48.4 µM | > 100 µM |  |  |  |  |  |  | 
12 | CC(C)(C)C(=O)O[C@H]1C=C[C@@H](O)[C@@H]2[C@H]1[C@@H]1C=C[C@H]2C1 | > 100 µM | 32.4 µM | 41 µM | > 100 µM | > 100 µM | 48 µM | > 100 µM | > 100 µM | 27.1 µM |  |  |  |  |  |  |  | 
13 | CC(C)Oc1cc2c(cc1O)CC[C@@H]1[C@@H]2CC[C@]2(C)[C@@H](O)CC[C@@H]12 | 18.3 µM | 20.9 µM | 29.1 µM | 26.6 µM | 46.6 µM | 37.4 µM | 35.7 µM | 18.4 µM | 24.6 µM | 18.4 µM |  |  |  |  |  |  | 
14 | CC1Cc2c(cc(N)nc2Br)NC1=O (stereo unspecified) | > 100 µM | > 100 µM | > 100 µM | > 100 µM | > 100 µM | > 100 µM | > 100 µM | > 100 µM | > 100 µM | > 100 µM |  |  |  |  |  |  | 
15 | C/C(=C\COP(=O)(O)OP(=O)(O)O)CC/C=C(\C)CNc1ccccc1 | > 50 µM |  | > 50 µM | > 50 µM | > 50 µM |  | > 50 µM | > 50 µM | > 50 µM | > 50 µM |  |  |  |  |  |  | 
16 | CCCOC1OC(CS(=O)(=O)O)C(OC(C)=O)C(OC(C)=O)C1OC(C)=O (stereo unspecified) | > 100 µM | > 100 µM | > 100 µM | > 100 µM | > 100 µM | > 100 µM | > 100 µM | > 100 µM | > 100 µM | > 100 µM |  |  |  |  |  |  | 
17 | Clc1ccc(Cc2nc3ccccc3nc2-c2cccc(Cl)c2)cc1 | 3.58 µM | 3.65 µM | 8.63 µM | 10.4 µM | 3.32 µM | 27 µM | > 100 µM | 5.06 µM | 39.3 µM | 38.4 µM |  |  |  |  |  |  | 
18 | C#Cc1cccc(Nc2ncnc3cc(OCCOC)c(OCCOC)cc23)c1 | > 100 µM | > 100 µM | > 51.6 µM | 44.2 µM | 74.5 µM | > 100 µM | > 100 µM | > 100 µM | > 100 µM | > 100 µM |  | > 88.8 µM |  |  |  | 4.17 µM | 47.4 µM
19 | O=C1NC(=S)N/C1=C\c1ccc(Sc2ccccc2C(=O)O)s1 | > 100 µM | > 100 µM | > 100 µM | > 100 µM | > 100 µM | > 100 µM | > 100 µM |  | > 100 µM | > 100 µM |  |  |  |  |  |  | 
20 | O=C(O)Cn1ncn(NC(=O)Cc2ccccc2)c1=S | > 10 µM | > 10 µM | > 10 µM | > 10 µM | > 10 µM | > 10 µM | > 10 µM | > 10 µM | > 10 µM |  |  |  |  |  |  |  | 
21 | Cc1cc(C)c(C#N)c(SC(=S)NC(=O)c2ccccc2)n1 |  | > 100 µM | > 100 µM | > 100 µM | > 100 µM | > 100 µM | > 100 µM | > 100 µM | > 100 µM | > 100 µM |  |  |  |  |  |  | 
22 | CCOc1ccccc1N=NC1C(=O)N(C(=O)CC(=O)Nc2ccccc2OC)N=C1C (stereo unspecified) | > 100 µM | > 100 µM | > 100 µM | > 100 µM | 68.2 µM | > 100 µM | > 100 µM | > 100 µM |  | > 100 µM |  |  |  |  |  |  | 

Source: PubChem BioAssay (NCI)
